According to patent US7670591B2, “Heteroaryl substituted benzoxazoles” (AstraZeneca AB, priority 2006, dated 2010):
pIC50, pKd: −log10 of the molar value. Like-named read-outs stand apart in the source and are kept apart here. Values belong to the compound of their own block, whether it stands above or below them.

Experiments:
[1] = molecular target: T1, human synthetic Aβ 1-40 fibrils (Homo sapiens, UniProt P05067); experiment: Saturation binding experiments; conditions: amyloid Aβ 1-40 fibrils in vitro, AVG; for pKd: two site binding
T1 construct: human synthetic Aβ 1-40 fibrils
Description: Saturation binding experiments were performed in 96-well polypropylene deep well plates. 2 μM human synthetic Aβ 1-40 fibrils in phosphate buffer pH 7.5, or buffer alone as control, were incubated with increasing concentration of a ^3H-labeled radioligand of the present invention for 1 hr at room temperature. The radioactivity still bound to the Aβ 1-40 fibrils at the end of the incubation was detected on FB filters after filtration in a Brandel apparatus using a wash buffer containing 0.1% Triton-X100. Results were corrected for nonspecific, nondisplaceable binding defined as the number of counts from wells without Aβ 1-40 fibrils (replaced with assay buffer).

synthetic Aβ 1-40 = molecular target: T2, synthetic Aβ 1-40 (Homo sapiens, UniProt P05067); experiment: Competition binding assay ([3H]PIB as radioligand)
T2 construct: using synthetic Aβ 1-40 in 2.7 nM of
Description: Competition binding was performed in 384-well FB filter plates using synthetic Aβ 1-40 in 2.7 nM of [^3H]PIB (or another ^3H-labeled radioligand when so mentioned) in phosphate buffer at pH 7.5, by adding various concentrations of non-radioactive compounds originally dissolved in DMSO. The binding mixture was incubated for 30 min at room temperature, followed by vacuum filtration, and subsequentially by washing twice with 1% Triton-X100. Scintillation fluid was thereafter added to the collected Aβ 1-40 on the filter plate, and the activity of the bound remaining radioligand ([^3H]PIB or another ^3H-labeled radioligand) was measured using 1450 Microbeta from PerkinElmer (FIG. 1). Specific binding was determined according to the competion binding assay described herein. The determined IC50's in the competion binding assays (using [^3H]PIB as radioligand) of 5 compounds of the present invention are shown in Table 2.

[2] = cited from earlier work
[3] = [3H]PIB as radioligand, Table 2

T2 sequence (P05067 672-711 limits assumed): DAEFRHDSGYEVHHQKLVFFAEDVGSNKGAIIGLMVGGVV
T1 sequence (P05067 672-711 limits assumed): as above

Bmax 1 ([1]; site 1): 0.9099 pmol/nmol Ab
Bmax 2 ([1]; site 2): 4.298 pmol/nmol Ab
pKd ([1]; site 1, read-out: Kd 1): 8.27
pKd ([1]; site 2, read-out: Kd 2): 7.20
pIC50 (synthetic Aβ 1-40; [3]): 6.74
pIC50 (synthetic Aβ 1-40; amyloid Aβ 1-40 fibrils in vitro, AVG): 6.74
Compound: CNc1ccc(-c2nc3ccc(O)cc3o2)cn1 [Example 5, 2-[6-(Methylamino)pyridin-3-yl]-1,3-benzoxazol-6-ol]

pIC50 (synthetic Aβ 1-40; [3]): 4.81
Compound: COc1ccc2nc(-c3ccc(N(C)C(C)=O)nc3)oc2c1 [Example 4, N-[5-(6-Methoxy-1,3-benzoxazol-2-yl)pyridin-2-yl]-N-methylacetamide]

pIC50 (synthetic Aβ 1-40; [3]): 6.73
Compound: CNc1ccc(-c2nc3ccc(OC)cc3o2)cn1 [Example 3, 5-(6-Methoxy-1,3-benzoxazol-2-yl)-N-methylpyridin-2-amine]

pIC50 (synthetic Aβ 1-40; [3]): 7.07
Compound: CN(C)c1ccc(-c2nc3ccc(O)cc3o2)cn1 [Example 2, 2-[6-(Dimethylamino)pyridin-3-yl]-1,3-benzoxazol-6-ol]

Compound: CN(C)c1ccc(-c2nc3ccc(I)cc3o2)cc1 [IBOX]
brain entrance ([2]; compared with TZDM): relatively higher brain entrance
clearance from normal brain tissue ([2]; compared with related analogues): relatively more rapid clearance from normal brain tissue

pIC50 (synthetic Aβ 1-40; [3]): 6.69
Compound: COc1ccc2nc(-c3ccc(N(C)C)nc3)oc2c1 [Example 1, 5-(6-Methoxy-1,3-benzoxazol-2-yl)-N,N-dimethylpyridin-2-amine]
